Consider 7 molecules from PubChem BioAssay AID1918944 (Molecular Pharmacology Branch, DTP, NCI, 2023).

This assay concerns 786-0 complex spheroid viability. In words: Anticancer human tumor 786-0 cell line growth inhibition.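 As to all read-outs here: spheroids exposed to agents for seven days before readout.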 The following applies: for viability, T/C: stronger effect = lower value. In short, it runs like this:
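Complex spheroids of tumor cells with HUVEC and human MSCs, exposed to iadademstat combined with other agents. Each agent tested in half-log steps from near clinical Cmax (else 10 microM top), DMSO ≤0.25%.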

[1] abbreviates: curve of first compound, second compound 0.1 µM.
[2] abbreviates: curve of first compound, second compound 0.316 µM.
Where [3] appears, read: curve of first compound, second compound 1 µM.
The mark [4] stands for this setting: curve of first compound, second compound 3.16 µM.
Setting [5] is: curve of first compound, second compound 10 µM.
Where [6] appears, read: second compound 0.1 µM, first compound 0.0316 µM.
Setting [7] is: second compound 0.1 µM, first compound 0.1 µM.
Where [8] appears, read: second compound 0.1 µM, first compound 0.316 µM.
Setting [9] is: second compound 0.1 µM, first compound 1 µM.
The mark [10] stands for this setting: second compound 0.1 µM, first compound 3.16 µM.
The mark [11] stands for this setting: second compound 0.1 µM, first compound 10 µM.
[12] abbreviates: second compound 0.316 µM, first compound 0.0316 µM.
Where [13] appears, read: second compound 0.316 µM, first compound 0.1 µM.
Where [14] appears, read: second compound 0.316 µM, first compound 0.316 µM.
The mark [15] stands for this setting: second compound 0.316 µM, first compound 1 µM.
[16] abbreviates: second compound 0.316 µM, first compound 3.16 µM.
Where [17] appears, read: second compound 0.316 µM, first compound 10 µM.
Where [18] appears, read: second compound 1 µM, first compound 0.0316 µM.
Setting [19] is: second compound 1 µM, first compound 0.1 µM.
Setting [20] is: second compound 1 µM, first compound 0.316 µM.
Where [21] appears, read: second compound 1 µM, first compound 1 µM.
Setting [22] is: second compound 1 µM, first compound 3.16 µM.
The mark [23] stands for this setting: second compound 1 µM, first compound 10 µM.
Where [24] appears, read: second compound 3.16 µM, first compound 0.0316 µM.
The mark [25] stands for this setting: second compound 3.16 µM, first compound 0.1 µM.
Setting [26] is: second compound 3.16 µM, first compound 0.316 µM.
Setting [27] is: second compound 3.16 µM, first compound 1 µM.
Where [28] appears, read: second compound 3.16 µM, first compound 3.16 µM.
Where [29] appears, read: second compound 3.16 µM, first compound 10 µM.
The mark [30] stands for this setting: second compound 10 µM, first compound 0.0316 µM.
Where [31] appears, read: second compound 10 µM, first compound 0.1 µM.
Where [32] appears, read: second compound 10 µM, first compound 0.316 µM.
[33] abbreviates: second compound 10 µM, first compound 1 µM.
Where [34] appears, read: second compound 10 µM, first compound 3.16 µM.
[35] abbreviates: second compound 10 µM, first compound 10 µM.
Setting [36] is: second compound 0.1 µM, first compound 0.00316 µM.
[37] abbreviates: second compound 0.1 µM, first compound 0.01 µM.
Setting [38] is: second compound 0.316 µM, first compound 0.00316 µM.
[39] abbreviates: second compound 0.316 µM, first compound 0.01 µM.
The mark [40] stands for this setting: second compound 1 µM, first compound 0.00316 µM.
Where [41] appears, read: second compound 1 µM, first compound 0.01 µM.
[42] abbreviates: second compound 3.16 µM, first compound 0.00316 µM.
The mark [43] stands for this setting: second compound 3.16 µM, first compound 0.01 µM.
The mark [44] stands for this setting: second compound 10 µM, first compound 0.00316 µM.
[45] abbreviates: second compound 10 µM, first compound 0.01 µM.

SMILES strings stand for the structures. Several values for one entry are separate records, joined by “and”; a condition that tells them apart may be missing. Equal entries are not always repeated.

Usually IC50 stands for the concentration that gives 50% inhibition. Broadly, the viability, T/C is the result in the treated group divided by that in the control group, in per cent. For the molecule `O=C(c1cc(Cc2n[nH]c(=O)c3ccccc23)ccc1F)N1CCN(C(=O)C2CC2)CC1` + NC1CC1c1ccc(-c2cccc(O)c2)cc1, the IC50 was over 10000 nM under setting [1]; over 10000 nM under setting [2]; over 10000 nM under setting [3]; over 10000 nM under setting [4]; over 10000 nM under setting [5]. The viability, T/C runs as follows: under setting [6], 111%; under setting [7], 119%; under setting [8], 107%; under setting [9], 105%; under setting [10], 97.6%; under setting [11], 80.8%. The viability, T/C runs as follows: under setting [12], 112%; under setting [13], 112%; under setting [14], 112%; under setting [15], 109%; under setting [16], 98.8%; under setting [17], 81.1%. For the same molecule, the viability, T/C is, setting by setting: under setting [18], 111%; under setting [19], 110%; under setting [20], 113%; under setting [21], 108%; under setting [22], 93.3%; under setting [23], 78.6%. Further, the viability, T/C by setting is: under setting [24], 103%; under setting [25], 105%; under setting [26], 103%; under setting [27], 97.5%; under setting [28], 85.9%; under setting [29], 68.4%. Also, the viability, T/C is, setting by setting: under setting [30], 97.3%; under setting [31], 98.8%; under setting [32], 89.3%; under setting [33], 90.7%; under setting [34], 72.8%; under setting [35], 52.9%.
Turning to `Nc1ncn(C2CC(O)C(CO)S2)c(=O)n1` (stereo unspecified), the viability, T/C (compound 0.000949 µM) is 110% and 99.7%; the viability, T/C (compound 0.003 µM) was 109% and 112%; the viability, T/C (compound 0.00949 µM) was 117% and 112%; the viability, T/C (compound 0.03 µM) is 103% and 102%; the viability, T/C (compound 0.0949 µM) was 67.7% and 83.2%; the viability, T/C (compound 0.3 µM) is 30.5% and 47.9%. Where the note is “curve of compound”, the 50% inhibitory concentration (IC50) was 164 nM and 280 nM.
On to `CC1(C)CCC(CN2CCN(c3ccc(C(=O)NS(=O)(=O)c4ccc(NCC5CCOCC5)c([N+](=O)[O-])c4)c(Oc4cnc5[nH]ccc5c4)c3)CC2)=C(c2ccc(Cl)cc2)C1`, for which the viability, T/C (compound 0.0316 µM) is 102% and 98%; the viability, T/C (compound 0.1 µM) is 106% and 105%; the viability, T/C (compound 0.316 µM) is 96.9% and 110%; the viability, T/C (compound 1 µM) was 97% and 99.1%; the viability, T/C (compound 3.16 µM) is 90.1% and 93.2%; the viability, T/C (compound 10 µM) is 66.7% and 79.4%. For the setting “curve of compound”, the half-maximal inhibitory concentration (IC50) is over 10000 nM.
In the case of `CC1COCCN1c1cc(-c2ccnn2C)c2ccnc(-c3ccn[nH]3)c2n1` (stereo unspecified) + NC1CC1c1ccc(-c2cccc(O)c2)cc1, the IC50 runs as follows: under setting [1], 47.9 nM; under setting [2], 45.3 nM; under setting [3], 44.1 nM; under setting [4], 30.7 nM; under setting [5], 17.4 nM. The viability, T/C under setting [36] is 119%; the viability, T/C under setting [37] is 108%; the viability, T/C under setting [6] is 63.8%; the viability, T/C under setting [7] was 25.9%; the viability, T/C under setting [8] was 16.2%; the viability, T/C under setting [9] was 17.9%. The viability, T/C under setting [38] is 115%; the viability, T/C under setting [39] was 107%; the viability, T/C under setting [12] was 62.5%; the viability, T/C under setting [13] was 22.7%; the viability, T/C under setting [14] was 15%; the viability, T/C under setting [15] is 17.3%. Further, the viability, T/C runs as follows: under setting [40], 111%; under setting [41], 111%; under setting [18], 61.5%; under setting [19], 22.6%; under setting [20], 15.8%; under setting [21], 17%. Further, the viability, T/C under setting [42] is 112%; the viability, T/C under setting [43] is 98.5%; the viability, T/C under setting [24] is 48.2%; the viability, T/C under setting [25] was 23.1%; the viability, T/C under setting [26] is 15%; the viability, T/C under setting [27] was 18.4%. Besides, the viability, T/C is 103% under setting [44]; 70.2% under setting [45]; 28.4% under setting [30]; 17% under setting [31]; 12.9% under setting [32]; 19.6% under setting [33].
For the molecule `CC1(C)CCC(CN2CCN(c3ccc(C(=O)NS(=O)(=O)c4ccc(NCC5CCOCC5)c([N+](=O)[O-])c4)c(Oc4cnc5[nH]ccc5c4)c3)CC2)=C(c2ccc(Cl)cc2)C1` + NC1CC1c1ccc(-c2cccc(O)c2)cc1, the concentration for half-maximal inhibition (IC50) by setting is: under setting [1], over 10000 nM; under setting [2], over 10000 nM; under setting [3], over 10000 nM; under setting [4], over 10000 nM; under setting [5], 8090 nM. Further, the viability, T/C by setting is: under setting [6], 119%; under setting [7], 114%; under setting [8], 115%; under setting [9], 110%; under setting [10], 103%; under setting [11], 66.6%. In addition, the viability, T/C runs as follows: under setting [12], 105%; under setting [13], 114%; under setting [14], 106%; under setting [15], 111%; under setting [16], 100%; under setting [17], 68.6%. Also, the viability, T/C reads like this: under setting [18], 113%; under setting [19], 114%; under setting [20], 106%; under setting [21], 106%; under setting [22], 96.3%; under setting [23], 60.9%. Further, the viability, T/C is 105% under setting [24]; 110% under setting [25]; 106% under setting [26]; 101% under setting [27]; 93.3% under setting [28]; 57.3% under setting [29]. The viability, T/C under setting [30] was 102%; the viability, T/C under setting [31] is 95.7%; the viability, T/C under setting [32] was 103%; the viability, T/C under setting [33] is 90.8%; the viability, T/C under setting [34] was 81.6%; the viability, T/C under setting [35] was 42.6%.
On to `COc1cc(Nc2ncc3c(n2)-c2ccc(Cl)cc2C(c2c(F)cccc2OC)=NC3)ccc1C(=O)O` + NC1CCC(NC2CC2c2ccccc2)CC1, for which the concentration for half-maximal inhibition (IC50) runs as follows: under setting [1], 609 nM; under setting [2], 480 nM; under setting [3], 451 nM; under setting [4], 233 nM; under setting [5], 117 nM. Further, the viability, T/C was 114% under setting [36]; 97.2% under setting [37]; 80.7% under setting [6]; 68.8% under setting [7]; 57.1% under setting [8]; 44.5% under setting [9]. In addition, the viability, T/C is, setting by setting: under setting [38], 116%; under setting [39], 93.2%; under setting [12], 73.2%; under setting [13], 65.9%; under setting [14], 54.1%; under setting [15], 43.7%. Besides, the viability, T/C by setting is: under setting [40], 108%; under setting [41], 91%; under setting [18], 71.8%; under setting [19], 66.9%; under setting [20], 53.9%; under setting [21], 42.5%. Further, the viability, T/C under setting [42] is 102%; the viability, T/C under setting [43] is 82%; the viability, T/C under setting [24] was 60.3%; the viability, T/C under setting [25] was 59.1%; the viability, T/C under setting [26] was 51%; the viability, T/C under setting [27] is 40.6%. The viability, T/C is, setting by setting: under setting [44], 80.2%; under setting [45], 64.9%; under setting [30], 53.2%; under setting [31], 56.4%; under setting [32], 46.4%; under setting [33], 39.7%.
For `CC(C)CC(NC(=O)C(Cc1ccccc1)NC(=O)c1cnccn1)B(O)O` (stereo unspecified), the viability, T/C was 100% and 106% (compound 0.000316 µM); 107% and 108% (compound 0.001 µM); 32.1% and 53.2% (compound 0.00316 µM); 2.29% and 6.77% (compound 0.01 µM); 0.17% and 1.21% (compound 0.0316 µM); 0.2% and 0.37% (compound 0.1 µM). Under “curve of compound”, the IC50 was 2.38 nM and 3.45 nM.
